Measurements as given in patent US20080064727A1, “Crystalline forms of tiagabine hydrochloride” (Cephalon, Inc., priority 2006, published 2008).

Key:
Assay type in all cases: physicochemical
[1] = Solid-form stability on storage, resulting form by XRPD analysis
Procedure: (§1) X-ray powder diffraction (XRPD) analyses were performed using the following instruments & methods:
(§2) A. Shimadzu XRD-6000 X-ray powder diffractometer using Cu Kα radiation. The instrument was equipped with a long fine focus X-ray tube. The tube voltage and amperage were set to 40 kV and 40 mA, respectively. The divergence and scattering slits were set at 1° and the receiving slit was set at 0.15 mm. Diffracted radiation was detected by a NaI scintillation detector. A θ-2θ continuous scan at 3°/min (0.4 sec/0.02° step) from 2.5 to 40° 2θ was used. A silicon standard was analyzed to check the instrument alignment. Data were collected and analyzed using XRD-6000 v. 4.1. Samples were prepared for analysis by placing them in a sample holder.
(§3) B. Inel XRG-3000 diffractometer, equipped with a CPS (Curved Position Sensitive) detector with a 2 Orange of 120°. Real time data were collected using Cu—Kα radiation starting at approximately 4° 2θ at a resolution of 0.03° 2θ. The tube voltage and amperage were set to 40 kV and 30 mA, respectively. The monochromator slit was set at 5 mm by 80 μm or 160 μm. […] Samples were prepared for analysis by packing them into thin-walled glass capillaries. Each capillary was mounted onto a goniometer head that is motorized to permit spinning of the capillary during data acquisition. The acquisition time was between 5 to 10 min. Instrument calibration was performed using a silicon reference standard.
(§4) D. Bruker D-8 Discover diffractometer and Bruker's General Area Diffraction Detection System (GADDS, v. 4.1.20). An incident beam of Cu—Kα radiation was produced using a fine-focus tube (40 kV, 40 mA), a Gobel mirror, and a 0.5 mm double-pinhole collimator. The samples were positioned for analysis by securing the well plate to a translation stage and moving each sample to intersect the incident beam. Alternatively, the sample was packed between 3-micron thick films to form a portable disc-shaped specimen, and the specimen was loaded in a holder secured to a translation stage. The samples were analyzed using a transmission geometry. The incident beam was scanned and rastered over the sample during the analysis to optimize orientation statistics. A beam-stop was used to minimize air scatter from the incident beam at low angles. Diffraction patterns were collected using a Hi-Star area detector located 15 cm from the sample and processed using GADDS. The intensity in the GADDS image of the diffraction pattern was integrated using a step size of 0.04° 2θ. The integrated patterns display diffraction intensity as a function of 2θ. Prior to the analysis a silicon standard was analyzed to verify the Si 111 peak position.
E. Peak Picking Methods. Any XRPD files generated from Inel or Bruker XRPD instruments were converted to Shimadzu .raw file using File Monkey version 3.0.4. The Shimadzu .raw file was processed by the Shimadzu XRD-6000 version 4.1 software to automatically find peak positions. The “peak position” means the maximum intensity of a peaked intensity profile. The following processes were used with the Shimadzu XRD-6000 “Basic Process” version 2.6 algorithm: • Smoothing was done on all patterns. • The background was subtracted to find the net, relative intensity of the peaks. • A peak from Cu K alpha2 (1.5444 Å) wavelength was subtracted from the peak generated by Cu K alpha1 (1.5406 Å) peak at 50% intensity for all patterns. Differential Scanning Calorimetry

[2] = Solid-form stability on heating, resulting form by XRPD analysis; details: heated five (5) minutes at about 160° C. in an argon atmosphere, lyophilized sample (Preparation Method 3), hydrochloride
Procedure: as §1, §2, §3
C. Shimadzu XRD-6000 X-ray powder diffractometer equipped with an Anton Paar HTK 1200 high temperature stage (Variable-temperature XRPD (VT-XRPD)). The sample was packed in a ceramic holder and analyzed form 2.5 to 40° 2θ at 3°/min (0.4 sec/0.02° step). The heating rate was 10° C./min. A silicon standard was analyzed to check the instrument alignment. Temperature calibration was performed using vanillin and sulfapyridine USP melting point standards. Data were collected and analyzed using XPD-6000 v.4.1. The system was kept under a purge of nitrogen during the analysis.
as §4
E. Peak Picking Methods. Any XRPD files generated from Inel or Bruker XRPD instruments were converted to Shimadzu .raw file using File Monkey version 3.0.4. The Shimadzu .raw file was processed by the Shimadzu XRD-6000 version 4.1 software to automatically find peak positions. The “peak position” means the maximum intensity of a peaked intensity profile. The following processes were used with the Shimadzu XRD-6000 “Basic Process” version 2.6 algorithm: • Smoothing was done on all patterns. • The background was subtracted to find the net, relative intensity of the peaks. • A peak from Cu K alpha2 (1.5444 Å) wavelength was subtracted from the peak generated by Cu K alpha1 (1.5406 Å) peak at 50% intensity for all patterns. […]

[3] = Moisture sorption/desorption (VTI SGA-100 moisture balance)
Procedure: Moisture sorption/desorption data were collected on a VTI SGA-100 moisture balance system. For sorption isotherms, a sorption range of 5 to 95% relative humidity (RH) and a desorption range of 95 to 5% RH in 10% RH increments were used for analysis. The samples were not dried prior to analysis. Equilibrium criteria used for analysis were less than 0.0100% weight change in 5 minutes with a maximum equilibration time of 3 hours if the weight criterion was not met. Data were not corrected for the initial moisture content of the samples.

[4] = Approximate solubility in various solvents by aliquot addition, visual dissolution; details: thermodynamic from solid, amorphous obtained by Preparation Method 3
Procedure: Dissolution was determined visually. The actual solubilities may be higher than reported due to the use of excess solvent (e.g., because of slow dissolution rates).

Cc1ccsc1C(=CCCN1CCC[C@@H](C(=O)O)C1)c1sccc1C.Cl [tiagabine HCl amorphous, tiagabine hydrochloride]
Time stable when stored ([1]; about 5° C., 11% relative humidity): at least 5 days | Time stable when stored ([1]; about 5° C., 43% relative humidity): ≥ 8 days | Time stable when stored ([1]; room temperature, 33% relative humidity): at least 22 days | Time stable when stored ([1]; room temperature, 58% relative humidity): at least 22 days | Form indicated by XRPD analysis after storage ([1]; stored 5 days, about 5° C., about 11% relative humidity, lyophilized sample (Preparation Method 3)): tiagabine HCl amorphous | Form indicated by XRPD analysis after storage ([1]; stored 8 days, about 5° C., about 43% relative humidity, lyophilized sample (Preparation Method 3)): tiagabine HCl amorphous | Form indicated by XRPD analysis after storage ([1]; stored 22 days, room temperature, about 33% relative humidity, crash-cooled sample (Preparation Method 1)): tiagabine HCl amorphous | Form indicated by XRPD analysis after storage ([1]; stored 22 days, room temperature, about 58% relative humidity, crash-cooled sample (Preparation Method 1)): tiagabine HCl amorphous | Form indicated by XRPD analysis after storage ([1]; stored 22 days, room temperature, about 75% relative humidity, crash-cooled sample (Preparation Method 1), hydrochloride): a mixture of tiagabine hydrochloride Forms A and B | Form indicated by XRPD analysis after storage ([1]; stored 22 days, room temperature, about 75% relative humidity, crash-cooled sample (Preparation Method 1), listed as Tiagabine hydrochloride amorphous, hydrochloride): a mixture of Forms A and B | Form indicated by XRPD analysis after storage ([1]; stored 22 days, room temperature, about 84% relative humidity, crash-cooled sample (Preparation Method 1), hydrochloride): a mixture of tiagabine hydrochloride Forms A and B | Form indicated by XRPD analysis after storage ([1]; stored 22 days, room temperature, about 84% relative humidity, crash-cooled sample (Preparation Method 1), listed as Tiagabine hydrochloride amorphous, hydrochloride): a mixture of Forms A and B | Form indicated by XRPD analysis after heating [2]: tiagabine HCl Form B | Form indicated by XRPD analysis after heating ([2]; listed as Tiagabine hydrochloride amorphous): tiagabine hydrochloride anhydrous | Weight gain upon sorption ([3]; at 95% relative humidity (RH)): 12.1% | Weight loss upon desorption ([3]; from 95% to 5% RH): 9.5% | Forms present by XRPD analysis after moisture sorption/desorption ([3]; sample after sorption 5 to 95% RH and desorption 95 to 5% RH): tiagabine HCl Forms A and B | solubility ([4]; aqueous with cosolvent or surfactant or cyclodextrin, solvent: 2-propanol/water (1:1)): > 129 mg/mL | solubility ([4]; organic solvent or mixture, solvent: 1,4 dioxane/water (3:1)): > 359 mg/mL | solubility ([4]; organic solvent or mixture, solvent: Acetonitrile): < 26 mg/mL | solubility ([4]; organic solvent or mixture, solvent: Benzonitrile): > 448 mg/mL | solubility ([4]; organic solvent or mixture, solvent: Chloroform): > 582 mg/mL | solubility ([4]; organic solvent or mixture, solvent: Dichloromethane): < 34 mg/mL | solubility ([4]; organic solvent or mixture, solvent: Dioxane): > 542 mg/mL | solubility ([4]; organic solvent or mixture, solvent: Tetrahydrofuran): > 562 mg/mL | solubility ([4]; organic solvent or mixture, solvent: Toluene): < 43 mg/mL | solubility ([4]; organic solvent or mixture, solvent: Trifluoroethanol): > 713 mg/mL | solubility ([4]; organic solvent or mixture, solvent: ethanol/water (10:1)): > 400 mg/mL | solubility ([4]; organic solvent or mixture, solvent: ethyl acetate (wet)): > 1190 mg/mL | solubility ([4]; organic solvent or mixture, solvent: ethyl acetate): < 24 mg/mL | solubility ([4]; organic solvent or mixture, solvent: methyl ethyl ketone): > 546 mg/mL | solubility ([4]; organic solvent or mixture, solvent: methyl-tert-butyl ether): < 14 mg/mL | solubility ([4]; water, solvent: Water): > 490 mg/mL
